Measurements from publication PMC4660985 (Biochemistry, 2015).

Experiments:
[1] = target: CYP125A3 (Mycolicibacterium smegmatis, UniProt A0R4Y3); experiment: UV-vis spectral titration; assay type: binding
[2] = target: T1, CYP125A4 (Mycolicibacterium smegmatis, UniProt A0QY38); experiment: UV-vis spectral titration; assay type: binding
T1 sequence (A0QY38 1-430): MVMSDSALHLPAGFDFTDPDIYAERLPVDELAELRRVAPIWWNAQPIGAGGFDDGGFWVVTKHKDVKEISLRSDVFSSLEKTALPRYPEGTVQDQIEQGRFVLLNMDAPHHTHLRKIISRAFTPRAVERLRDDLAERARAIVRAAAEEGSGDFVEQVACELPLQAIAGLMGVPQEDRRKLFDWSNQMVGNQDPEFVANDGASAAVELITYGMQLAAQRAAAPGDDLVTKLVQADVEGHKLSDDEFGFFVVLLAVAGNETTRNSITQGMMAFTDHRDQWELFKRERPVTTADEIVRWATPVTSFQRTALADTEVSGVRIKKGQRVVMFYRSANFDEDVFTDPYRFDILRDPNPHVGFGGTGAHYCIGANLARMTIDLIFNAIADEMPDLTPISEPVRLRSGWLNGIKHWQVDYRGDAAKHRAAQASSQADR

[3] = tested on: CC(C)CCC[C@@H](C)[C@H]1CC[C@H]2[C@@H]3[C@H](O)CC4=CC(=O)CC[C@]4(C)[C@H]3CC[C@]12C; experiment: steady-state turnover of purified enzyme, HPLC; assay type: biochemical, Mycolicibacterium smegmatis; conditions: heme
[4] = tested on: CC(C)CCC[C@@H](C)[C@H]1CC[C@H]2[C@@H]3CCC4=CC(=O)CC[C@]4(C)[C@H]3CC[C@]12C; experiment: steady-state turnover of purified enzyme, HPLC; assay type: biochemical, Mycolicibacterium smegmatis; conditions: heme
[5] = target: T1, CYP125A4; experiment: UV-vis partial type I spectral shift; assay type: binding

CYP125A3, sequence (A0R4Y3 whole entry): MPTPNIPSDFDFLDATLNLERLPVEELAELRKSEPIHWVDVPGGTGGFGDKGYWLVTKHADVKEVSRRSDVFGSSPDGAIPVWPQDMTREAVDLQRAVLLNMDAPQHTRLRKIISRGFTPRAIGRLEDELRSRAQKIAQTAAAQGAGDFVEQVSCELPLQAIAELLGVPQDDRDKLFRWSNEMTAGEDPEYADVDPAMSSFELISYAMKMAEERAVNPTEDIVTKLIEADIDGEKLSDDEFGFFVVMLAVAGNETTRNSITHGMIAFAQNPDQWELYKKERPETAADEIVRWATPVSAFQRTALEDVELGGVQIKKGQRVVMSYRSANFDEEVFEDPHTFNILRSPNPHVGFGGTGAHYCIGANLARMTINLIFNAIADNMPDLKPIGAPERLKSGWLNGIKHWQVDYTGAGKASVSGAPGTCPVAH

CC(C)CCC[C@@H](C)[C@H]1CC[C@H]2[C@@H]3[C@H](O)C=C4C[C@@H](O)CC[C@]4(C)[C@H]3CC[C@]12C [7α-hydroxycholesterol]
Kd [1]: 32.9 ± 4.7 µM | Kd [2]: 8.7 ± 0.5 µM

CYP125A4 Y87W (Mycolicibacterium smegmatis MC2 155; Y87W)
Km [3]: 5.1 ± 1.3 µM

CYP125A3 W83Y (Mycolicibacterium smegmatis MC2 155; W83Y)
Km [4]: 24.1 ± 7.8 µM

CC(C)CCC[C@@H](C)[C@H]1CC[C@H]2[C@@H]3CC=C4C[C@@H](O)CC[C@]4(C)[C@H]3CC[C@]12C [cholesterol]
UV-vis partial type I spectral shift; C-26 oxidation by HPLC [5]: Addition of cholesterol or 4-cholesten-3-one did induce a partial shift to the type I high-spin species
